Measurements published in patent publication US12029682B2, “Spray ejector mechanisms and devices providing charge isolation and controllable droplet charge, and low dosage volume ophthalmic administration” (EYENOVIA, INC., priority 2012, dated 2024).

Experiments:
glaucomatous beagles = test: Pupil diameter (PD), Jameson Caliper, in glaucomatous beagles; type: in vivo, beagle dog; settings: for PD: spray ejector device, one dog
Experimental: (§1) One glaucomatous beagle dog (female, aged 3 years) from the University of Florida MacKay Colony of Glaucomatous Beagles was chosen for this study. The animal was rested a minimum of one week before starting the study. Prior to the commencement of the study, the animal was assigned one eye to receive 1.5 μl of 0.005% latanoprost and the contralateral eye to remain untreated as a control. The basic measurement protocol was followed at all times and performed by the same operator. PD was measured via Jameson Caliper (mm horizontally). IOP was measured using a TonoVet instrument with clean probe (iCare). IOP and PD were measured at time 0, 1, 2, 4, 7 and 18 hours daily for two days. Immediately after the time 0 measurement, the animal received 1.5 μl of 0.005% latanoprost in its assigned eye with a spray device. The contralateral eye was left untreated. The spray device was checked for accuracy before and after every use, and required a 10% delivered dose accuracy in pretreatment. Standard measurements continued throughout each day at time 1, 2, 4, 7 and 18 hours. Possible endpoints included, but were not limited to, excessive ocular irritation, ocular damage, and other illness or injury. No statistical crossover was utilized for this study.
as §1, with “study.” for “study. The animal was rested a minimum of one week before starting the study.”, “receive 3.0” for “receive 1.5”, “0 measurements,” for “0 measurement,”, “animal was administered 3.0” for “animal received 1.5”, “eye using” for “eye with”, “spray ejector” for “spray”
All animals were rested for a minimum of one week before starting the trials. IOP and pupil diameter (PD) were measured 5 times (at 0, 1, 2, 4, and 7 hours) daily for four days (study days 1-4) to establish initial baseline levels. The basic measurement protocol was followed at all times and performed by the same operator. PD was measured via Jameson Caliper (mm horizontally). IOP was measured with a TonoVet instrument with clean probe (iCare). After three rest days, one eye was randomly assigned to receive 9 μl of 0.005% latanoprost delivered via a spray ejector device, and the contralateral eye was administered traditional latanoprost from a traditional eyedropper container (26-30 μl).
On study days 5-9, IOP and PD measurements were taken at approximately 0900 h (time 0). Immediately after time 0 measurements, each animal received a once-daily dose of 9 μl of generic 0.005% latanoprost in its assigned eye via the spray ejector device. […]

[1] = Pharmacokinetic study: acid of latanoprost in aqueous humor (AH) by HPLC; type: in vivo, beagle dog; settings: delivered by the spray ejector device
Experimental: Eight normal laboratory beagles were chosen for this study. Conditions for inclusion included normal overall health and normal ophthalmic state as determined by gross eye exam by a boarded veterinary ophthalmologist. Pre- and post-dosing mass deposition calibrations of the spray device were consistently within 10% of the intended dose of 9 μl. A 9.0 μl dose of a commercially available prostaglandin pro-drug, latanoprost, was instilled topically in two eyes of each of eight normotensive beagle dogs using the spray ejector device. Levels of the acid of latanoprost were measured in aqueous humor (AH) obtained by aqueocentesis over a 7-hour period each day for 5 days. This protocol was repeated for latanoprost 0.005% delivered by eyedropper (average dose 26 μl).
All dogs received a washout and acclimation period of two weeks. In Week 1, all animals were assigned to a group, with two animals each in Groups 1, 2, 4, and 7. […] IOP and PD were measured while the topical anesthetic took effect. […]
Week 3 followed the Week 1 protocol, with the substitution of eyedropper-delivered 0.005% latanoprost at an average dose of 26 μl at time 0. […] All AH samples were frozen to −80° C., stored overnight on dry ice, and then analyzed for the acid of latanoprost using a latanoprost-specific HPLC methodology. […]

Structure (SMILES): CC(C)OC(=O)CCC/C=C\C[C@@H]1[C@@H](CC[C@@H](O)CCc2ccccc2)[C@H](O)C[C@@H]1O [latanoprost]
- PD (glaucomatous beagles; 1.5 μl of 0.005%, by hour 1 through hour 7): 0 mm
- PD (glaucomatous beagles; 3.0 μl of 0.005%, by hour 1 throughout hour 7): 0 mm
- time to return to normal PD (glaucomatous beagles; one drop of 0.005% by eyedropper): ≤ 24 h
- time at which the iris reached pinpoint status (glaucomatous beagles; traditional treatment, one drop by eyedropper, remained for the seven hours of monitoring): 1 h
- time at which the iris reached pinpoint status (maximum miosis) (glaucomatous beagles; two 6 μl doses via ejector device, remained for the seven hours of monitoring): 1 h
- absorption rate vs eyedropper-delivered drug in higher doses [1]: three-fold
